Measured values: US20250026788A1, “PEPTIDES FOR THE TREATMENT OF CHRONICALLY ACTIVE AUTOIMMUNE INFLAMMATION” (advanceCOR GmbH, priority 2021, published 2025)
Ends that are not written are not given here.

How the values were obtained:
[1] = system: FIA-CIA (bCII- and hFib-immunized mice which develop RA-like arthritis); conditions: for overview of the paws: soft tissue enhancement and lymphocyte infiltration (HE sections): right hind paws; for arthritis score: score 0-16 per mouse
[2] = system: anti-bCII or anti-hFib antibody titers; experiment: Measurement of mouse antibodies by ELISA in sera of treated FIA-CIA mice; type: in vivo; conditions: sera taken on days 35 and 84, 1 mg/kg i.v. on days 14, 35 and 56
Experimental: Serum was collected on days 0, 14, 35 and 56 of the experiment via bleeding of the tail vein. Treatment with peptides 90091, 90578 (at a concentration of 1 mg/kg body weight) or 0.9% NaCl was applied intravenously on day 14, 35 and 56. Mice were randomly distributed to the three treatment groups. Treatment compounds were numbered 1, 2 and 3. To minimize confounders, each of the three mice per cage received a different treatment. All clinical and histological investigators were blinded to the treatment until data analysis was finished. For comparability between the therapy groups, all mice, including the CFA control mice, received a daily dose of 1 mg/kg Metacam® (meloxicam) from day 14 after the first immunization on until the end of the experiment. Mice were killed on day 84 of the experiments via intracardiac punction and blood withdrawal under ketamine/xylazine anaesthesia.
ELISA plates were coated with 100 μl per well of either 1 μg/ml bCII (Chondrex, Inc.) or 1 μg/ml hFib (Millipore/Calbiochem) or 1 μg/ml citrullinated hFib (Cayman) or CCP peptide at a concentration of 10 μg/ml in coating solution for 1 h. The CCP peptide we used for the selected CCP assay had the following sequence: HQCHQEST(cit)GRSRGRCGRSGS (SEQ ID NO: 2), with disulphide bonds spanning C3-C16.
All subsequent procedures were performed at room temperature (RT) and incubations were done on a microtiter plate shaker. […] After washing, the POD was detected by incubation with 100 μl/well of TMB substrate (Thermo Scientific, #34029) until a maximal optical density (OD) of about 1 to 2 was reached. Finally, the colorimetric reaction was stopped with 100 μl/well stopping solution (1M H2SO4) and the OD determined at a wavelength of 450 nm with a reference wavelength of 595 nm with the Tecan Infinite F 200 plate reader.
For assessment of antibodies, various antigens were coated on ELISA plates, and the sera of the mice were added. Binding of antibodies to the antigens was then measured by adding anti-mouse antibodies labelled with POD.

[3] = 1 mg/kg i.v. on days 14, 35 and 56
[4] = 1 mg/kg i.v. on days 14, 35 and 56, vs NaCl

| Molecule | adverse effects ([1]; mouse, in vivo, 1 mg/kg) | antibody levels (anti-bCII, anti-hFib titers) [2] | ankle and tarsal joint histology (lymphocyte infiltrates, cartilage, pannus) [1, 3] | survival probability (Kaplan-Meier, log-rank) ([1]; 1 mg/kg i.v. on days 14, 35 and 56, mice killed when arthritis too severe) | overview of the paws: soft tissue enhancement and lymphocyte infiltration (HE sections) [1, 3] | arthritis score [1, 4] | antibody levels (anti-bCII, anti-hFib titers) ([2]; 1 mg/kg) | antibody levels (anti-bCII, anti-hFib titers) ([2]; listed as Peptide 905778, 1 mg/kg) | paw swelling of tarsal joints ([1]; 1 mg/kg i.v. on days 14, 35 and 56, caliper, vs NaCl) | average histology score ([1]; 1 mg/kg i.v. on days 14, 35 and 56, right hind paw HE sections at day 84, score max 15, N=8) |
| --- | --- | --- | --- | --- | --- | --- | --- | --- | --- | --- |
| Cc1cnc(NC(=O)C2=C(O)c3ccccc3S(=O)(=O)N2C)s1 [meloxicam, reference compound] | did not develop any adverse effects | – | – | – | – | – | – | – | – | – |
| peptide 90091: non-fructosylated derivative of peptide 90578, amino sequence GEPGIAGFKGEQGPK (SEQ ID No: 1) (CARBOHYD (9)..(9); listed as Bos taurus) [reference compound] | – | not Affected by Treatment | less lymphocyte infiltrates, but also pannus formation and cartilage erosion | did not reveal a significant difference between groups | severely enhanced | seemed to enhance arthritis, but not significantly | – | – | – | – |
| peptide 90578: GEPGIAGFKGEQGPK (SEQ ID NO: 1, bCII 256-270) with a D-fructosyl residue on the lysine at position 264 (position 9) (GEPGIAGFK(D‑fructosyl)GEQGPK; listed as Bos taurus) | – | – | the cartilage was intact and there were only a few lymphocyte infiltrates in the subchondral bone | – | less tissue enhancement and lymphocyte infiltration | tended to be less severe | this effect could not be found in the antibody levels | not Affected by Treatment | significantly lower swelling on days 49 and 56 | 3.9 |
